Biological target: PDE3 enzyme (Homo sapiens (Human), UniProt Q14432)
Experiment: PDE3 inhibition assay (BIOMOL GREEN Quantizyme Assay System)
Type: biochemical
Settings: PDE3 from platelets isolated from human blood; cAMP substrate; 1 hour at 37° C.; read at 620 nm
Protocol: PDE3 inhibition assay was performed a BIOMOL GREEN™ Quantizyme Assay System (catalogue No. BML-AK800-0001). The Platelets isolated from human blood were used as a source of PDE3 enzyme. 10 mL blood collected in a vacutainer tube (containing K3 EDTA) and centrifuged at 190×g for 15 min at room temperature. Top layer (platelet rich plasma) collected, centrifuged at 2500 g for 5 min at 22° C. (Room temp.) The pellet was washed with 2 ml of 50 mM tris buffer (pH-7.4) containing 1 mM MgCl2 and centrifuged at 2500 g for 5 min. Then 200 μl of assay buffer (from PDE kit, Enzo Life Sciences) was added to the pellet and sonicated at 30 s per ml. Pellet was freeze thawed for three times (−80° C.) in order to rupture the platelet membrane and release the PDE enzyme. Then the cell homogenate was centrifuged at 2500 rpm for 5 min. Supernatant was collected and used as source for PDE3 enzyme. In 96 well plate (Prod. No. BML-KI101), we added supernatant having PDE3 enzyme, PDE3 assay buffer, cAMP substrate, 5′ nucleotidase and test or standard compound and incubated for 1 hour at 37° C. The reaction was arrested by the addition 100 μl BIOMOL GREEN reagent incubated in room temp for 20 min. The green color developed was measured at 620 nm.
The in vitro Phosphodiestarase (PDE3) inhibitory activity of compounds 1a-q, were measured using a BIOMOL GREEN™ Quantizyme Assay System (catalogue No. BML-AK800-0001). The basic principle for this assay is the cleavage of c-AMP or c-GMP into their respective nucleotide by a cyclic nucleotide phosphodiesterase. The nucleotide (AMP or GMP) released is further cleaved into the nucleoside and phosphate by the enzyme 5′-nucleotidase. The extent of phosphate released is directly proportional to the PDE activity. In this screening method, the released phosphate by the enzymatic cleavage is quantified using BIOMOL GREEN reagent in a modified malachite green assay. The resulting green colour with λmax at 620 nm is directly proportional to the released phosphate and then PDE activity.

Sequence of PDE3 enzyme (Q14432 whole entry): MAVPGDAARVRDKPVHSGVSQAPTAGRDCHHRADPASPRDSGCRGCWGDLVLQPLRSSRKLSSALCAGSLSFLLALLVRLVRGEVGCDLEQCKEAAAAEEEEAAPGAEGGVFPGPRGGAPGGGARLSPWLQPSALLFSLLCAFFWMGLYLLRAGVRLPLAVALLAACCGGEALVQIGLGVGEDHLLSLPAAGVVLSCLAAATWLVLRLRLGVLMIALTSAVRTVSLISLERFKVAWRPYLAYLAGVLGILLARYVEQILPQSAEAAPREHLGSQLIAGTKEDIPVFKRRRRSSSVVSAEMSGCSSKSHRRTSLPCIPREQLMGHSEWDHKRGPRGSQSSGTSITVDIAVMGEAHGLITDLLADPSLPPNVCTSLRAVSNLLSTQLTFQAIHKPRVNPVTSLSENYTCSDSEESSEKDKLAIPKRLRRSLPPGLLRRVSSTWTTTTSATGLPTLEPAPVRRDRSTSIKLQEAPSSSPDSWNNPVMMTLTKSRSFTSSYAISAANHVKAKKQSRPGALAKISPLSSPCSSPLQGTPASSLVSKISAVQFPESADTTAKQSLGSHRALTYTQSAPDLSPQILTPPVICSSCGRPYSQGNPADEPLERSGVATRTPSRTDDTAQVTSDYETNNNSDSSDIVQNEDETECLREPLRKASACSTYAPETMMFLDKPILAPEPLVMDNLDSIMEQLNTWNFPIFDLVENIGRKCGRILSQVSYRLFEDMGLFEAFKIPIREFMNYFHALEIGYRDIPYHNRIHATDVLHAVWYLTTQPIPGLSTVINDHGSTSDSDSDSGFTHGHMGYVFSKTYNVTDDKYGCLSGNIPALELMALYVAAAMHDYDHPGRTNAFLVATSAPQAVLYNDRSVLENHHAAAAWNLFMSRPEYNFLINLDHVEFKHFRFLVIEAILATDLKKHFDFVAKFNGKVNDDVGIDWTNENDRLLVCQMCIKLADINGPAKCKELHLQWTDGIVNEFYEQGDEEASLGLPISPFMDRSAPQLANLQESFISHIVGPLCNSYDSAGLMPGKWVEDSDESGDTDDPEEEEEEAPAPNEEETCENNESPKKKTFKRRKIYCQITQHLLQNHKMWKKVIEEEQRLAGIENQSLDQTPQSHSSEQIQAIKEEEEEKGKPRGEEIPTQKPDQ

Cn1c(=O)c2cc(Cc3ccccc3)c(=O)[nH]c2n(C)c1=O [Compound 1a, 6-Benzyl-1,3-dimethyl-1,2,3,4,7,8-hexahydropyrido[2,3-d]pyrimidine-2,4,7-trione]
IC50: 11800 nM

Cn1c(=O)c2cc(Cc3ccc(Cl)cc3)c(=O)[nH]c2n(C)c1=O [Compound 1g, 6-(4-Chlorobenzyl)-1,3-dimethyl-1,2,3,4,7,8-hexahydropyrido[2,3-d]pyrimidine-2,4,7-trione]
IC50: 12.5 nM

Cn1c(=O)c2cc(Cc3cccc(F)c3)c(=O)[nH]c2n(C)c1=O [Compound 1c, 6-(3-Fluorobenzyl)-1,3-dimethyl-1,2,3,4,7,8-hexahydropyrido[2,3-d]pyrimidine-2,4,7-trione]
IC50: 32.3 nM

Cn1c(=O)c2cc(Cc3ccc(Br)cc3)c(=O)[nH]c2n(C)c1=O [Compound 1k, 6-(4-Bromobenzyl)-1,3-dimethyl-1,2,3,4,7,8-hexahydropyrido[2,3-d]pyrimidine-2,4,7-trione]
IC50: 4.8 nM

Cn1c(=O)c2cc(Cc3ccccc3Br)c(=O)[nH]c2n(C)c1=O [Compound 1i, 6-(2-Bromobenzyl)-1,3-dimethyl-1,2,3,4,7,8-hexahydropyrido[2,3-d]pyrimidine-2,4,7-trione]
IC50: 6.6 nM

Cn1c(=O)c2cc(Cc3ccccc3F)c(=O)[nH]c2n(C)c1=O [Compound 1b, 6-(2-Fluorobenzyl)-1,3-dimethyl-1,2,3,4,7,8-hexahydropyrido[2,3-d]pyrimidine-2,4,7-trione]
IC50: 48.8 nM
